Target: Fibroblast growth factor 1 (Homo sapiens, UniProt P05230)
Test: Binding affinity at FGF1

Fibroblast growth factor 1, sequence (P05230 whole entry): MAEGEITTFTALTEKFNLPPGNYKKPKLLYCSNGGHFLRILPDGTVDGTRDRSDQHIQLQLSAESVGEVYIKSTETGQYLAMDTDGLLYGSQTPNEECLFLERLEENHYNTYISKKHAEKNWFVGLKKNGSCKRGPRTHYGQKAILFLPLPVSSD

Structure (SMILES) | Kd [µM]
CO[C@@H]1O[C@H](COS(=O)(=O)O)[C@@H](O[C@H]2O[C@H](COS(=O)(=O)O)[C@H](OC)[C@H](OC)[C@H]2OS(=O)(=O)O)[C@H](OS(=O)(=O)O)[C@H]1OS(=O)(=O)O | 47.9
CO[C@@H]1O[C@H](COS(=O)(=O)O)[C@@H](O[C@H]2O[C@H](CO)[C@H](O)[C@H](O)[C@H]2OS(=O)(=O)O)[C@H](OS(=O)(=O)O)[C@H]1OS(=O)(=O)O | 77.5

Further compounds by falling Kd, results first:

Kd [µM] | Structure (SMILES)
1400 | CO[C@@H]1OC[C@@H](O[C@H]2O[C@H](CO)[C@H](O)[C@H](O)[C@H]2OS(=O)(=O)O)[C@H](OS(=O)(=O)O)[C@H]1OS(=O)(=O)O
233 | COC[C@H]1O[C@H](O[C@H]2[C@H](OS(=O)(=O)O)[C@@H](OS(=O)(=O)O)[C@H](OC)O[C@@H]2COS(=O)(=O)O)[C@H](OS(=O)(=O)O)[C@@H](OC)[C@H]1OC
21.8 | CO[C@@H]1O[C@H](COS(=O)(=O)O)[C@@H](O[C@H]2O[C@H](COS(=O)(=O)O)[C@H](O)[C@H](O)[C@H]2OS(=O)(=O)O)[C@H](OS(=O)(=O)O)[C@H]1OS(=O)(=O)O

— ChEMBL document CHEMBL1143236, “Design, synthesis, FGF-1 binding, and molecular modeling studies of conformationally flexible heparin mimetic disaccharides” (Bioorg Med Chem Lett, 2008)
